# The source made the active and inactive calls. The calls are words filed in the database; no cut-off is given here.
# Key:
# Cerebral cortex neuron = experiment: Modulation of calcium oscillation in Swiss-Webster gravid dams mouse cerebrocortical neurons measured for 2 mins on day 12 by fluo-3 AM dye based fluorescence assay; format: functional, cell-based
# NCI-H460 = experiment: Cytotoxicity against human NCI-H460 cells at 30 uM incubated for 48 hrs by MTT assay; format: functional, cell-based
smiles,measurement,setting,value
CC(C)[C@@H]1NC(=O)[C@@H](Cc2ccccc2)NC(=O)[C@@H](C)NC(=O)[C@H](CO)NC(=O)[C@@H](NC(=O)[C@@H](CO)NC(=O)c2csc(CNC(=O)c3csc([C@H](C(C)C)N(C)C)n3)n2)[C@@H](C)OC(=O)[C@H](Cc2ccccc2)NC1=O,Activity,Cerebral cortex neuron,inactive
same,Activity,NCI-H460,inactive
